The assay deals with P388. Nature of the assay: Cytotoxicity against mouse P388 cells. The assay is classed as functional, cell-based.

In ChEMBL document CHEMBL1157500, “Spiroleptosphol isolated from Leptosphaeria doliolum” (Bioorg Med Chem Lett, 2008) one finds EC50 data, which are given here for one compound.

The EC50 is the concentration giving half of the maximal effect.

Values after ≈ are worked out from the molar mass of the structure shown.

As for `C=C1OC(=O)[C@@]2([C@H](/C=C/[C@H](C)C[C@H](C)CC)C=C[C@@H](O)[C@@H]2O)[C@H]1O` [SPIROLEPHTOSHOL], the EC50 stood at 20 µg/mL (≈ 59.4 µM).
